For data set [1], the system named is luciferase expression in the liver. In words: In vivo luciferase mRNA expression in liver after tail vein injection of FLuc mRNA lipid nanoparticles. Also on record: species or system mice. The settings on record: liver 5 hours after administration, FLuc mRNA LNP 50% cationic lipid/10% DSPC/40% cholesterol/1.5% PEG-DMG; for Liver Luc @ 0.3 mg/kg dose: 0.3 mg mRNA/kg; for Liver Luc @ 1.0 mg/kg dose: 1.0 mg mRNA/kg. As to the method:
[…] Lipid nanoparticles (LNPs) were prepared in a total lipid to mRNA weight ratio of about 10:1 to 30:1. mRNA was diluted to 0.15 mg/ml in 10 to 50 ml citrate buffer (pH=4). Using a syringe pump, an ethanolic solution of lipids was mixed with an aqueous mRNA solution in a ratio of approximately 1:5 to 1:3 (volume/volume) at a total flow rate of more than 15 ml/min. Then ethanol was removed and the external buffer replaced by dialysis with PBS. Finally, the lipid nanoparticles were filtered through a 0.2 um pore size sterile filter. The particle size of lipid nanoparticles as determined by quasi-elastic light scattering using Malvern Zetasizer Nano ZS was approximately 65-105 nm in diameter and, in some cases, approximately 75-100 nm in diameter.
The in vivo study was conducted on female mice aged 6-8 weeks and mice aged 8-10 weeks according to guidelines developed by the National Council for Science and Technology. Different doses of mRNA lipid nanoparticles were administered systemically via tail vein injection and the animals euthanized at specific time points (e.g., 5 hours) after dosing. The liver and spleen were collected in pre-weighed tubes, their weights determined, frozen immediately in liquid nitrogen, and stored at −80° C. until use for analysis.
For the liver, approximately 50 mg of liver tissue was cut for analysis and placed in 2 mL FastPrep tubes (MP Biomedicals, Solon OH). ¼″ ceramic beads (MP Biomedicals) and 500 μL of Glo Lysis Buffer-GLB (Promega, Madison WI) were added to each tube and the contents equilibrated to room temperature. The liver tissue was then homogenized for 15 seconds at 2×6.0 m/s using a FastPrep24 instrument (MP Biomedicals). The homogenates were incubated for 5 minutes at room temperature followed by a ¼ dilutions in GLB and evaluated using the SteadyGlo luciferase assay system (Promega). Specifically, 50 μL of diluted tissue homogenate was reacted with 50 μL of SteadyGlo substrate, shaken for 10 seconds, followed by incubation for 5 minutes and quantified using a CentroXS3LB 960 photometer (Berthold Technologies, Germany). The amount of protein was determined using a BCA Protein Assay Kit (Pierce, Rockford IL). Relative luminescence units (RLU) were then normalized to the total ug of the measured protein. To convert RLU into ng luciferase, a standard curve was generated with QuantiLum recombinant luciferase (Promega).
FLuc mRNA (L-6107) from Trilink Biotechnologies will express luciferase protein, and was originally isolated from fireflies (Photinus pyralis). Fluc is commonly used in mammalian cell cultures to measure gene expression and cell viability. It emits biologic light in the presence of the substrate luciferin. This capped and polyadenylated mRNA was completely replaced by 5-methylcytidine and pseudouridine. […]

A short description of data set [2]: Determination of the pKa of cationic lipids in lipid nanoparticles by TNS fluorescence analysis.
Method: The pKa of each cationic lipid was determined in lipid nanoparticles using fluorescence analysis based on 2-(p-toluidine)-6-naphthalenesulfonic acid (TNS). As described in Example 3, lipid nanoparticles containing cationic lipids/DSPC/cholesterol/PEG lipids (50/10/40/1.5 mol %) at a concentration of 0.4 mM total lipid in PBS were prepared using an ordered method. 100 μM stock solution was prepared with TNS in distilled water. The vesicles were diluted to contain 24 μM lipid in 2 mL of a buffer solution containing 10 mM HEPES, 10 mM MES, 10 mM acetic acid, 130 mM NaCl, and having a pH of 2.5 to 11. The equal TNS solution was added to produce a final concentration of 1 uM, and after vortex mixing, fluorescence intensity was measured in a SLM Aminco Series 2 luminescence spectrophotometer at room temperature using excitation and emission wavelengths of 321 nm and 445 nm. Fluorescence data were analyzed using a sigmoidal best fit and pKa was measured as the pH producing half-maximal fluorescence intensity.

Experimental findings from patent US20250074867A1, “NOVEL CATIONIC LIPID COMPOUNDS” (Guangzhou Anobri Pharmaceutical Co. Ltd., priority 2021, published 2025) are described below.

With “2-heptylnonyl 8-((2-hydroxyethyl) (6-oxo-6-(undecyloxy)hexyl)amino)octanoate [Compound B]”, in data set [1], the “Liver Luc @ 0.3 mg/kg dose” value is reported as 134 ± 40 ng luciferase/g liver and the “Liver Luc @ 1.0 mg/kg dose” value is on record as 522 ± 210 ng luciferase/g liver.

Regarding `CCCCCCCCCCCOC(=O)CCCCCN(CCO)CCCCCCCC(=O)OCC(CCCCCCCC)CCCCCCCC` [Compound A, 2-octyldecyl 8-((2-hydroxyethyl) (6-oxo-6-(undecyloxy)hexyl)amino)octanoate], in data set [1], the “Liver Luc @ 0.3 mg/kg dose” value turned out to be 156 ± 50 ng luciferase/g liver and the “Liver Luc @ 1.0 mg/kg dose” value amounted to 550 ± 200 ng luciferase/g liver. For the same compound, the pKa in data set [2] is 6.01.

The term pKa denotes the pH at which an ionisable group is half protonated. High values mean a group that holds its proton tightly, low ones a group that gives up its proton readily.
